From patent US12498323B2, “Use of fluorescent imaging plate reader (FLIPR) high-throughput real-time fluorescence detection and analysis system in detection of calcium signals in plants” (Guizhou Normal University, priority 2022, dated 2025)

Legend:
Format in all cases: cell-based
[1] = system: protoplasts of the Primula rupestris leaves; experiment: FLIPR calcium signal detection in protoplasts of Primula rupestris leaves
Experimental: (§1) (1) The protoplasts prepared in Example 1 were taken out, and mixed with the calcium dye according to a ratio of protoplast: calcium dye=1:1, and a group added with only a calcium dye and without protoplasts was taken as a control group, and added to a 96-well plate of a cell plate, as shown in Table 1:
(2) A buffer (helps buffer) was used to prepare a 96-well plate of the cell plate with different concentrations of CaCl2 solutions: CaCl2 (0, 10, 20, 40, 60, 80, 100, 150, 200, 300, and 500 mM). A group without adding protoplasts was taken as a control group.
(3) The cell plate was wrapped with a plastic wrap, and incubated at 37° C. for 1 h. After the incubation, the two plates were balanced, centrifuged at 600 rpm at 4° C. for 1-2 min, and loaded on the machine.
(4) The above experiment was repeated for 10 times to observe whether the results were consistent. The order of concentrations from top to bottom in the legend on the right in FIG. 3 and the order of concentrations from left to right in Table 2 can be in one-to-one correspondence.
The buffer was used to prepare a 96-well plate of the cell plate with different concentrations of CaCl2 solutions: CaCl2 (0, 100, 200, 220, 240, 260, 280, 300, 350, 400, and 450 mM). The cell plate was wrapped with a plastic wrap, and incubated at 37° C. for 1 h. After the incubation, the two plates were balanced, centrifuged at 600 rpm at 4° C. for 1-2 min, and loaded on the machine. The order of concentrations from top to bottom in the legend on the right in FIG. 5 and the order of concentrations from left to right in Table 3 can be in one-to-one correspondence:
Using step (1) in Example 2, a buffer was used to prepare a 96-well plate of a cell plate with different concentrations of EGTA solutions: EGTA solution (0, 0.1, 0.5, 1.0, 5, 10, 25, 50, 100, 150, and 200 mM).
The cell plate was wrapped with a plastic wrap, and incubated at 37° C. for 1 h. After the incubation, the two plates were balanced, centrifuged at 600 rpm at 4° C. for 1-2 min, and loaded on the machine.
The above experiment was repeated for 10 times to observe whether the results were consistent. The order of concentrations from top to bottom in the legend on the right in FIG. 7 and the order of concentrations from left to right in Table 4 can be in one-to-one correspondence.
as §1, with “dye=1:1 till a total of 150 μL,” for “dye=1:1,”, “plate.” for “plate, as shown in Table 1:”
(2) 220 mM of CaCl2 solution and 100 μM of EGTA solution were added to the 96-well plate of the cell plate in step (1).
(4) The above experiment was repeated for 10 times to observe whether the results were consistent.
The difference was that the EGTA solution and the CaCl2 solution in step (3) had different concentrations, and the corresponding parameters are shown in Table 5: […]

[2] = system: protoplasts of the Primula rupestris sepals; experiment: FLIPR calcium signal detection in protoplasts of Primula rupestris sepals
Excerpt: According to the method in Example 4, the EGTA solution and the CaCl2 solution were combined to treat the change of the protoplasts of the Primula rupestris sepals, and the parameters of the examples and comparative examples are shown in Table 6: […]

[3] = system: protoplasts of the Primula rupestris petals; experiment: FLIPR calcium signal detection in protoplasts of Primula rupestris petals
Excerpt: According to the method in Example 4, the EGTA solution and the CaCl2 solution were combined to treat the change of the protoplasts of the Primula rupestris petals, and the parameters of the examples and comparative examples are shown in Table 7:

[4] = system: protoplasts of the valerian leaves; experiment: FLIPR calcium signal detection in protoplasts of valerian leaves
[5] = method of Example 2, FIG. 18-19
[6] = method of Example 2, FIG. 25-26

Structure (SMILES)	concentration of the CaCl2 solution at which the calcium signal surges significantly ([1]; first series 0-500 mM CaCl2, 37° C. 1 h, FIG. 2-3) [mM]	concentration of the CaCl2 solution at which the calcium signal surges significantly ([1]; refined series 0-450 mM CaCl2, 37° C. 1 h, FIG. 4-5) [mM]	confirmed concentration of the CaCl2 solution (exogenous calcium signal stimulation) ([1]; refined series, FIG. 4-5) [mM]	CaCl2 concentration at which the calcium signal changes significantly ([2]; method of Example 2, FIG. 11-12) [mM]	CaCl2 concentration range in which the calcium signal changes significantly [3, 5] [mM]	concentration of the CaCl2 solution at which the calcium signal surges significantly [3, 5] [mM]	CaCl2 concentration range in which the calcium signal changes significantly [4, 6] [mM]	concentration of the CaCl2 solution at which the calcium signal surges significantly [4, 6] [mM]	effect of composite reaction of EGTA solution and CaCl2 solution on calcium signal fluorescence ([1]; EGTA plus CaCl2 1:1, Table 5 settings, FIG. 8-9)	EGTA solution concentration with relatively excellent chelation effect on the calcium signal ([1]; EGTA series 0-200, 37° C. 1 h, FIG. 6-7) [µM]	effect of composite reaction of EGTA solution and CaCl2 solution on calcium signal fluorescence ([2]; EGTA plus CaCl2, Table 6 settings, FIG. 15-16)	confirmed concentration of the calcium signal chelator EGTA solution ([2]; method of Example 3, FIG. 13-14) [µM]	effect of composite reaction of EGTA solution and CaCl2 solution on calcium signal fluorescence ([3]; EGTA plus CaCl2, Table 7 settings, FIG. 22-23)	confirmed concentration of the calcium signal chelator EGTA solution ([3]; method of Example 3, FIG. 20-21) [µM]	effect of composite reaction of EGTA solution and CaCl2 solution on calcium signal fluorescence ([4]; EGTA plus CaCl2, Table 8 settings, FIG. 29-30)	confirmed concentration of the calcium signal chelator EGTA solution ([4]; method of Example 3, FIG. 27-28) [µM]
[Ca+2].[Cl-].[Cl-] [CaCl2]	300	220	220 to 450	350	350 to 450	350	220 to 450	220	–	–	–	–	–	–	–	–
O=C(O)CN(CCOCCOCCN(CC(=O)O)CC(=O)O)CC(=O)O [EGTA, ethylene glycol tetraacetic acid]	–	–	–	–	–	–	–	–	can chelate the change of the fluorescence caused by the exogenous calcium signal	5 to 200	can chelate the change of the fluorescence caused by the exogenous calcium signal	5 to 200	can chelate the change of the fluorescence caused by the exogenous calcium signal	5 to 200	can chelate the change of the fluorescence caused by the exogenous calcium signal	0.1 to 200
